# Measurements from patent US20240277682A1, “PHARMACEUTICAL HYDRONIDONE FORMULATIONS FOR DISEASES” (Gyre Therapeutics, Inc., priority 2021, published 2024).
# Tests used:
# [1] = In vitro Phase 2 metabolism in human liver microsomes; format: in vitro ADME; settings: 30 minutes incubation
# human CYP 1A2 = target: T1, human CYP 1A2 (Homo sapiens, UniProt P05177); assay: biochemical
# T1 sequence (P05177 1-516): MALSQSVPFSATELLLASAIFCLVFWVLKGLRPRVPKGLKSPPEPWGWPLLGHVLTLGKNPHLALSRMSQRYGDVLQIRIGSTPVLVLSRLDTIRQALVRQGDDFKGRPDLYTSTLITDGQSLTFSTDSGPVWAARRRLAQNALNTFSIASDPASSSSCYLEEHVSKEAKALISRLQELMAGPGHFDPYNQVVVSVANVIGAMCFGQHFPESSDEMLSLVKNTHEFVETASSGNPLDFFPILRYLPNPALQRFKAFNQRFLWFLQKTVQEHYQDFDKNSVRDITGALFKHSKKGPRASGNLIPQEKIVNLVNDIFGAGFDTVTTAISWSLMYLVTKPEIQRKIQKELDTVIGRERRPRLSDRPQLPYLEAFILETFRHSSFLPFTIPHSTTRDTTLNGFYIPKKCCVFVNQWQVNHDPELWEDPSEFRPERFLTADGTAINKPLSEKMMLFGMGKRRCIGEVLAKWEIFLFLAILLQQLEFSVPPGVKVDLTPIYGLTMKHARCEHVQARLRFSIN
# Protocol: In vitro study investigated whether Hydronidone is inhibitor for human cytochrome P450 (CYP450). The effects of different Hydronidone concentrations were determined by the fluorescence intensity of metabolic substrates of CYP1A2, 2C9, 2C19, 2 D6 and 3A4, produced under the effect of the relevant enzyme. The respective IC50 value were calculated in the event of observed inhibition with hydronidone.
# [2] = Safety, tolerability and PK of single doses, 7-day and 4-week multiple oral doses (Example 10); format: in vivo, human
# Protocol: This was a randomized, open-label, study of safety, tolerability and PK of single doses, 7-day, and 4-week multiple oral doses of Hydronidone in healthy Chinese subjects.
# This study was conducted in three parts. In the first part single escalating doses of Hydronidone of 15 mg, 30 mg, 60 mg, 90 mg, and 120 mg/day were administered to six (6), eight (8), eight (8), six (6), six (6) healthy subjects, respectively, as per the Fibonacci Escalating Method (modified Fibonacci method). […] As no adverse experiences were reported at any dose level, the two highest single dose levels of 90 mg and 120 mg of Hydronidone were selected for the second part of the study, and were administered TID to 6 subjects each, for seven consecutive days. Thus, total daily doses of Hydronidone in these two dose groups were 270 mg and 360 mg, respectively. All subjects completed the seven-day dosing regimen without premature discontinuation. No clinically-significant abnormal changes in vital signs, ECG and laboratory test results of each group of subjects were found. In the third part of the study, six (6) subjects were given oral Hydronidone at a daily dose of 60 mg TID (total daily dose of 180 mg) for four (4) consecutive weeks. All subjects completed the seven-day dosing regimen without premature discontinuation. No clinically-significant abnormal changes in vital signs, ECG and laboratory test results of each group of subjects were found.
# PK assessments were performed in each part of the study. In the single part of the study, the PK parameters also included food effect assessment.
# [3] = test system: liver fibrosis due to chronic Hepatitis B; assay: Phase II study in subjects with liver fibrosis due to chronic Hepatitis B, 52 weeks, Entecavir basic treatment (Examples 11-21); format: in vivo, human
# Protocol: This is a Phase II, randomized, double-blind, placebo-controlled, Entecavir-Basic Treatment, multi-center, dose-ranging study on the efficacy and safety of Hydronidone when administered to Chinese subjects with liver fibrosis due to chronic Hepatitis B for 52 consecutive weeks.
# Approximately 240 eligible subjects, approximately 60 subjects per dose cohort, are planned to be enrolled in the study and treated daily with Hydronidone oral doses of 30 mg, 60 mg. or 120 mg TID (total daily doses of […], […], and 360 mg, respectively) for 52 consecutive weeks or placebo, concomitantly with basic anti-viral treatment with Entecavir at a daily dose of 0.5 mg. In parallel, a group of 12 subjects will be evaluated for PK.
# [4] = test system: CCl4 and western diet (WD) induced NASH; assay: (CCl4+HFD) induced NASH model in mice; format: in vivo
# Source text: The total NASH score was lower at dosage of 15 milligram per kilogram (mpk) and 50 mpk.
# liver fibrosis = assay: HSA-induced and DMN-induced liver fibrosis in rats; format: in vivo
# Protocol: Hydronidone anti-fibrotic effects were evaluated in several animal models of liver fibrosis, such as human serum albumin (HSA)-induced liver fibrosis in rats, dimethyl nitrosamine (DMN)-induced liver fibrosis in rats, and carbon tetrachloride (CCl4)-induced liver fibrosis in mice. […] In the CCl4-induced liver fibrosis in mice, Hydronidone effects were the most prominent at the doses of 3-10 mg/kg/day, although some effects were also shown at the dose of 1 mg/kg/day. In some embodiments, this dose range corresponds to human equivalent dose (HED) range of 15-50 mg. […] The HED of these rat doses are in the range of 100-2,400 mg which were all tested as safe in Phase I clinical trials of Hydronidone, with the 100 mg dose being […] the maximum daily dose of 360 mg (administered as 120 mg TID) administered to the subjects with liver fibrosis due to chronic Hepatitis B in the ongoing Phase II clinical study of efficacy and safety of Hydronidone in China.
# [5] = In vitro drug-drug interaction with Entecavir and Lamivudine in human liver microsomes
# Protocol: Entecavir and Lamivudine, were used concomitantly with Hydronidone, or individually, in the in vitro drug interaction experiments, in respective concentrations of each of 1.5 mM.
compound,measurement,setting,value
"Cc1ccc(=O)n(-c2ccc(O)cc2)c1 [Hydronidone, N-(4-hydroxyphenyl)-5-Methyl-2-pyridone]",generation of the M4 metabolite,[1],detected
same,IC50,human CYP 1A2,> 100 µM
same,maximum tolerated single oral dose,[2]; healthy subjects,120 mg
same,Tmax,"[2]; human, in vivo, po, 120 mg",36 ± 29.4 min
same,QTc interval,[2]; in vivo,no abnormal prolongation of the QTc interval
same,subjects with increase in T-BIL and D-BIL post-dose values,[2]; in vivo,Three
same,Ishak score improvement in patients of significant fibrosis,[3]; 52 weeks,consistent with the results of primary endpoint analysis
same,improvement in HBeAg(−) vs HBeAg(+) patients,[3]; 52 weeks,better than in HbeAg(+) patients
same,response in HBV DNA+ patients,"[3]; HBV DNA+ after 52 weeks Entecavir therapy, Ishak>3",all patients (Ishak>3) responded
same,Ishak score ≥1 (primary endpoint),"[3]; after 52 weeks of therapy, with Entecavir",significantly lower the Ishak score
same,intra group Ishak score change,"[3]; after 52 weeks, all drug groups",statistically significant decline of Ishak score≥1
same,change of liver stiffness measurement LSM,"[3]; after 52 weeks, all drug groups, intra group P<0.01",decline of LSM(kPa)
same,Ishak score changes,[3]; baseline HBeAg (+) patients after 52 weeks,statistical significant changes when dose groups are combined
same,Ishak score changes,[3]; baseline HBeAg (−) patients after 52 weeks,statistical significant changes when dose groups are combined
same,fibrosis in patients of significant fibrosis and cirrhosis,[3]; combination of 270 mg and 360 mg groups,can improve fibrosis
same,fibrosis in patients of significant fibrosis and cirrhosis,[3]; combination of all drug groups,can improve fibrosis
same,LSM scores,"[3]; combination of drug groups, Advanced Fibrosis (Ishak≥4)",showed statistical significance
same,best dose group (patients of significant fibrosis),"[3]; total daily dose, 52 weeks",270 mg
same,total NASH score,[4]; 15 milligram per kilogram (mpk),lower
same,fibrosis and cell ballooning (H&E staining),[4]; 15 mpk,significantly inhibited
same,fibrosis and cell ballooning (H&E staining),[4]; 50 mpk,significantly inhibited
same,total NASH score,[4]; 50 mpk,lower
same,potency compared with pirfenidone,[4]; NASH model in mice,more potent than pirfenidone
same,effect on CCl4 and western diet (WD) induced NASH (H&E staining),[4]; mice,protective effect
same,"anti-fibrotic effect (level of fibrosis, hydroxyproline, ALT, AST)",liver fibrosis; HSA- and DMN-induced liver fibrosis in rats,potent anti-fibrotic effect
same,anti-fibrotic effect compared with silymarin extract (positive control),liver fibrosis; rats,comparable or more potent than silymarin extract
same,dose range in which anti-fibrotic effects were shown,"liver fibrosis; rats, depending on the model",10 to 250 mg/kg/day
same,role of liver metabolism as metabolic pathway,[5],the liver metabolism is not the main Hydronidone metabolic pathway
